Reference: patent US11377425B1, “Small molecule modulators of IL-17” (LEO Pharma A/S, priority 2018, dated 2022)

Biological target: T1, human IL-17AA (Homo sapiens, UniProt Q16552)
T1 construct: host or cells: HEK (human embryonic kidney) cells
T1 sequence (Q16552 24-155): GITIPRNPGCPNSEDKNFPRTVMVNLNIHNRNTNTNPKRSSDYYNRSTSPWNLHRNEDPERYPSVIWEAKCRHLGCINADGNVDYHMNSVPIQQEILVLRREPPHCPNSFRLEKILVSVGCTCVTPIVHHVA
Test: IL-8 release assay in human epithelial keratinocytes adult (HEKa)
Type: cell-based
Settings: HEKa cells, 3 ng/mL HEK-human IL-17AA + 10 ng/mL human TNFalpha; read-out: Rel EC50 IL-8 release assay
In short: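 IL-8 release, quantified by HTRF and normalized to controls, reports IL-17 signaling in HEKa cells treated with compound plus final 3 ng/mL IL-17AA (HEK-derived) and 10 ng/mL TNF-alpha for 68-72 h; TNF-alpha-only wells set 100% inhibition. Four-parameter logistic fits (r^2>0.9) give relative IC50 and Emax; PrestoBlue flags cytotoxicity.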

Compared with `Cc1n[nH]c(C)c1-c1ccc(NC(=O)C(NC(=O)c2ccnn2C)[C@@H]2CCOc3ccccc32)cc1` (mixture of isomers) [Example 26, 1:3 mixture of N-[(1S)-1-[(4R)-chroman-4-yl]-2-[4-(3,5-dimethyl-1H-pyrazo 4-yl)anilino]-2-oxo-ethyl]-2-methyl-pyrazole-3-carboxamide and N-[(1R)-1-[(4R)-chroman-4-yl]-2-[4-(3,5-dimethyl-1H-pyrazol-4-yl)anilino]-2-oxo-ethyl]-2-methyl-pyrazole-3-carboxamide], `Cc1n[nH]c(C)c1-c1ccc(NC(=O)[C@@H](NC(=O)c2ccnn2C)[C@H]2CCc3ccc(Br)cc32)cc1` [Example 5, N-[(1S)-1-[(1S)-6-bromoindan-1-yl]-2[4-(3,5-dimethyl-1H-pyrazol-4-yl)anilino]-2-oxo-ethyl]-2-methyl-pyrazole-3-carboxamide] is lower in EC50: > 1000 nM for the first, < 100 nM for the second.

`Cc1n[nH]c(C)c1-c1ccc(NC(=O)[C@@H](NC(=O)C(C)(C)C)C(C2CC2)C2CC2)cc1` [Example 168, N-[(1S)-1-(dicyclopropylmethyl)-2-[4-(3,5-dimethyl-1H-pyrazol-4-yl)anilino]-2-oxo-ethyl]-2,2-dimethyl-propanamide] and `Cc1n[nH]c(C)c1-c1ccc(NC(=O)[C@@H](NC(=O)C2CCC2)C(C2CC2)C2CC2)cc1` [Example 169, N-[(1S)-1-(dicyclopropylmethyl)-2-[4-(3,5-dimethyl-1H-pyrazol-4-yl)anilino]-2-oxo-ethyl]cyclobutane carboxamide] cannot be ordered by EC50: > 1000 nM for the first, > 1000 nM for the second.

First: Cc1ncn(C)c1-c1ccc(NC(=O)C(NC(=O)OC(C)(C)C)C(C2CC2)C2CC2)cc1 (stereo not drawn) [Example 84, tert-butyl N-[1-(dicyclopropylmethyl)-2-[4-(3,5-dimethylimidazol-4-yl)anilino]-2-oxo-ethyl]carbamate]
Second: Cc1ncn(C)c1-c1ccc(NC(=O)[C@@H](NC(=O)OC(C)(C)C)C2CCCC2)cc1 [Example 87, tert-butyl N-[(1S)-1-cyclopentyl-2-[4-(3,5-dimethylimidazol-4-yl)anilino]-2-oxo-ethyl]carbamate]
The EC50 of the first is lower: 100 to 1000 nM for the first, > 1000 nM for the second. The first is the more potent here.

First: Cc1n[nH]c(C)c1-c1ccc(NC(=O)[C@@H](NC(=O)c2ccnn2C(C)CO)C2CCCCC2)cc1 (single isomer, unassigned) [Example 105]
Second: Cc1n[nH]c(C)c1-c1ccc(NC(=O)[C@@H](NC(=O)c2ccnn2C(C)(C)C)C2CCCCC2)cc1 [Example 8, 2-tert-butyl-N-[(1S)-1-cyclohexyl-2-[4-(3,5-dimethyl-1H-pyrazol-4-yl)anilino]-2-oxo-ethyl]pyrazole-3-carboxamide]
The EC50 of the first is lower: 100 to 1000 nM for the first, > 1000 nM for the second.

`Cc1n[nH]c(C)c1-c1ccc(NC(=O)[C@@H](NC(=O)c2ccnn2CC(F)(F)F)C2CCCCC2)cc1` [Example 29] and `Cc1n[nH]c(C)c1-c1ccc(NC(=O)C(NC(=O)c2ccnn2CCC(C)O)C2CCCCCCC2)cc1` (single isomer, unassigned) [Example 143, N-[1-cyclooctyl-2-[4-(3,5-dimethyl-1H-pyrazol-4-yl)anilino]-2-oxo-ethyl]-2-(3-hydroxybutyl)pyrazole-3-carboxamide] fall in the same range of EC50: 100 to 1000 nM for the first, 100 to 1000 nM for the second.

Compared with `CC(C)n1nccc1C(=O)N[C@H](C(=O)Nc1ccc(-c2c(C3(O)CC3)cnn2C)cc1)C(C1CC1)C1CC1` [Example 368, N-[(1S)-1-(dicyclopropylmethyl)-2-[4-[4-(1-hydroxycyclopropyl)-2-methyl-pyrazol-3-yl]anilino]-2-oxo-ethyl]-2-isopropyl-pyrazole-3-carboxamide], `Cc1noc(C)c1-c1ccc(NC(=O)[C@@H](NC(=O)c2ccnn2C(C)C)C(C2CC2)C2CC2)cc1` [Example 360, N-[(1S)-1-(dicyclopropylmethyl)-2-[4-(3,5-dimethylisoxazol-4-yl)anilino]-2-oxo-ethyl]-2-isopropyl-pyrazole-3-carboxamide] is lower in EC50: 100 to 1000 nM for the first, < 100 nM for the second.

Compared with `Cc1n[nH]c(C)c1-c1ccc(NC(=O)[C@@H](NC(=O)c2ccnn2C(C)C)[C@H]2CCCC3(CC3)C2)cc1` [Example 41, N-[(1S)-2-[4-(3,5-dimethyl-1H-pyrazol-4-yl)anilino]-2-oxo-1-[(7S)-spiro[2.5]octan-7-yl]ethyl]-2-isopropyl-pyrazole-3-carboxamide], `Cc1n[nH]c(C)c1-c1ccc(NC(=O)C(NC(=O)c2ccnn2C(C)C)C2CCC3(CC2)CC3)cc1` (racemic) [Example 20, N-[2-[4-(3,5-dimethyl-1H-pyrazol-4-yl)anilino]-2-oxo-1-spiro[2.5]octan-6-yl-ethyl]-2-isopropyl-pyrazole-3-carboxamide] is higher in EC50: < 100 nM for the first, 100 to 1000 nM for the second.

`Cc1n[nH]c(C)c1-c1ccc(NC(=O)[C@@H](NC(=O)c2ccnn2CCC(C)O)C(C2CC2)C2CC2)cc1` (stereo partly drawn) [Example 185, N-[(1S)-1-(dicyclopropylmethyl)-2-[4-(3,5-dimethyl-1H-pyrazol-4-yl)anilino]-2-oxo-ethyl]-2-(3-hydroxybutyl)pyrazole-3-carboxamide] and `CCn1nccc1C(=O)N[C@H](C(=O)Nc1ccc(-c2c(C)n[nH]c2C)cc1)C(C1CC1)C1CC1` [Example 107, N-[(1S)-1-(dicyclopropylmethyl)-2-[4-(3,5-dimethyl-1H-pyrazol-4-yl)anilino]-2-oxo-ethyl]-2-ethyl-pyrazole-3-carboxamide] cannot be ordered by EC50: < 100 nM for the first, < 100 nM for the second.

`Cc1n[nH]c(C)c1-c1ccc(NC(=O)[C@@H](NC(=O)c2ccnn2C(C)CO)C2C3CC4CC(C3)CC2C4)cc1` (single isomer, unassigned) [Example 187] and `Cc1n[nH]c(C)c1-c1ccc(NC(=O)[C@@H](NC(=O)c2ccnn2C(C)C)C2C3CC4CC(C3)CC2C4)cc1` (stereo partly drawn) [Example 200, N-[(1S)-1-(2-adamantyl)-2-[4-(3,5-dimethyl-1H-pyrazol-4-yl)anilino]-2-oxo-ethyl]-2-isopropyl-pyrazole-3-carboxamide] cannot be ordered by EC50: < 100 nM for the first, < 100 nM for the second.

`Cc1n[nH]c(C)c1-c1ccc(NC(=O)[C@@H](NC(=O)c2ccnn2CC2CC2)C(C2CC2)C2CC2)cc1` [Example 129, 2-(cyclopropylmethyl)-N-[(1S)-1-(dicyclopropylmethyl)-2-[4-(3,5-dimethyl-1H-pyrazol-4-yl)anilino]-2-oxo-ethyl]pyrazole-3-carboxamide] and `CCn1nccc1C(=O)N[C@H](C(=O)Nc1ccc(-c2c(C3CC3)n[nH]c2C)cc1)C(C1CC1)C1CC1` [Example 392, N-[(1S)-2,2-dicyclopropyl-1-[[4-(3-cyclopropyl-5-methyl-1H-pyrazol-4-yl)phenyl]carbamoyl]ethyl]-2-ethyl-pyrazole-3-carboxamide] cannot be ordered by EC50: < 100 nM for the first, < 100 nM for the second.

`Cn1cnnc1-c1ccc(NC(=O)[C@@H](NC(=O)c2ccnn2C)C2CCCCCC2)cc1` [Example 350, N-[(1S)-1-cycloheptyl-2-[4-(4-methyl-1,2,4-triazol-3-yl)anilino]-2-oxo-ethyl]-2-methyl-pyrazole-3-carboxamide] and `CC(C)n1nccc1C(=O)N[C@H](C(=O)Nc1ccc(-c2ncn(C)c2C(F)(F)F)cc1)C1CCCCC1` [Example 371B, N-[(1S)-1-cyclohexyl-2-[4-[1-methyl-5-(trifluoromethyl)imidazol-4-yl]anilino]-2-oxo-ethyl]-2-isopropyl-pyrazole-3-carboxamide] cannot be ordered by EC50: > 1000 nM for the first, > 1000 nM for the second.

`CC(C)n1nccc1C(=O)NC(C(=O)Nc1ccc(-c2c(C3CC3)n[nH]c2C2CC2)cc1)C(C1CC1)C1CC1` (single isomer, unassigned) [Example 384, N-[1-(dicyclopropylmethyl)-2-[4-(3,5-dicyclopropyl-1H-pyrazol-4-yl)anilino]-2-oxo-ethyl]-2-isopropyl-pyrazole-3-carboxamide] and `Cc1n[nH]c(C)c1-c1ccc(NC(=O)[C@@H](NC(=O)c2ccn[nH]2)C(C2CC2)C2CC2)cc1` [Example 216, N-[(1S)-1-(dicyclopropylmethyl)-2-[4-(3,5-dimethyl-1H-pyrazol-4-yl)anilino]-2-oxo-ethyl]-1H-pyrazole-5-carboxamide] fall in the same range of EC50: 100 to 1000 nM for the first, 100 to 1000 nM for the second.

`Cc1n[nH]c(C)c1-c1ccc(NC(=O)C(NC(=O)c2ccnn2C)C2CCC(C)(C)C2)cc1` (stereo not drawn) [Example 266, N-[1-(3,3-dimethylcyclopentyl)-2-[4-(3,5-dimethyl-1H-pyrazol-4-yl)anilino]-2-oxo-ethyl]-2-methyl-pyrazole-3-carboxamide] and `Cc1n[nH]c(C)c1-c1ccc(NC(=O)C(NC(=O)c2ccnn2C)C(c2ccccc2)C2CC2)cc1` (single isomer, unassigned) [Example 303, N-[1-[cyclopropyl(phenyl)methyl]-2-[4-(3,5-dimethyl-1H-pyrazol-4-yl)anilino]-2-oxo-ethyl]-2-methyl-pyrazole-3-carboxamide] fall in the same range of EC50: 100 to 1000 nM for the first, 100 to 1000 nM for the second.

Compared with `Cc1n[nH]c(C)c1-c1ccc(NC(=O)C(NC(=O)c2ccnn2C)C(C(F)(F)F)C(F)(F)F)cc1` (racemic) [Example 14], `Cc1n[nH]c(C)c1-c1ccc(NC(=O)[C@@H](NC(=O)c2ccnn2C(C)C)[C@H]2CC[C@H](C)CC2)cc1O` [Example 417, N-[(1S)-2-[4-(3,5-dimethyl-1H-pyrazol-4-yl)-3-hydroxy-anilino]-1-(trans-4-methylcyclohexyl)-2-oxo-ethyl]-2-isopropyl-pyrazole-3-carboxamide] is lower in EC50: > 1000 nM for the first, < 100 nM for the second. The second is the more potent here.

Compared with `Cc1n[nH]c(C)c1-c1ccc(NC(=O)[C@@H](NC(=O)Cc2ccc(N(C)C)cc2)C2CCCCC2)cc1` [Example 54, (2S)-2-cyclohexyl-2-[[2-(4-dimethylaminophenyl)acetyl]amino]-N-[4-(3,5-dimethyl-1H-pyrazol-4-yl)phenyl]acetamide], `Cc1[nH]nc(C(C)(C)O)c1-c1ccc(NC(=O)[C@@H](NC(=O)OC(C)(C)C)C2CCCCC2)cc1` [Example 436, tert-butyl N-[(1S)-1-cyclohexyl-2-[4-[5-(1-hydroxy-1-methyl-ethyl)-3-methyl-1H-pyrazol-4-yl]anilino]-2-oxo-ethyl]carbamate] is higher in EC50: 100 to 1000 nM for the first, > 1000 nM for the second.
